ChEMBL document CHEMBL1121939, “1-beta-D-arabinofuranosyl-1H-imidazo[4,5-c]pyridine (ara-3-deazaadenine)” (J Med Chem, 1982)

Legend:
[1] = molecular target: Adenosylhomocysteinase (Homo sapiens, UniProt P23526); assay: Inhibitory activity against S-adenosyl-homocysteine hydrolase; set-up: species or system herpes simplex virus; settings: read-out: I50
[2] = tested on: L929; assay: Inhibitory activity against herpes simplex virus type 1 grown in L929 cells; format: functional, Mus musculus

Sequence of Adenosylhomocysteinase (P23526 whole entry): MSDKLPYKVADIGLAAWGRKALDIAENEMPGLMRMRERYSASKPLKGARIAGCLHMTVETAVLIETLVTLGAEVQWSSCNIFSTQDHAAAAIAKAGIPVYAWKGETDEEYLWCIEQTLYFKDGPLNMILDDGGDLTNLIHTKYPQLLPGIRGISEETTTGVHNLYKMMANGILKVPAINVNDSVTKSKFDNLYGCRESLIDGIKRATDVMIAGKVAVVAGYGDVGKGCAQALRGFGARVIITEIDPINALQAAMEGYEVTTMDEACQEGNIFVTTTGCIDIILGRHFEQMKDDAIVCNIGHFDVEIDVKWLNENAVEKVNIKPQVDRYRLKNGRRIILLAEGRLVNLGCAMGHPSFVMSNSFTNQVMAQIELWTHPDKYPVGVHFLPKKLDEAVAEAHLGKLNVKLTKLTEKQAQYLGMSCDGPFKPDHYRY

IC50 [1] [µM]	Structure (SMILES)	MED50 [2] [µg/mL]	Virus rating [2]
4	Nc1nccc2c1ncn2[C@@H]1O[C@H](CO)[C@@H](O)[C@H]1O		
100	Nc1nccc2c1ncn2[C@@H]1O[C@H](CO)[C@@H](O)[C@@H]1O	189	0.8
	Nc1ncnc2c1ncn2[C@@H]1O[C@H](CO)[C@@H](O)[C@@H]1O [VIDARABINE]	0.8	3.7
